Article PMC9606729 (RSC Advances, 2022)
Where two headings read alike, the source gives them in different places.

Legend:
HeLa cells [1] = experiment: MTT cell viability assay (photocytotoxicity), HeLa; type: cell-based, human; settings: for PI (Phototoxic Index) HeLa: ratio between IC50 in the dark and visible light exposure
Experimental: (§1) The photocytotoxicity of the complexes was assessed using MTT assay based on the ability of mitochondrial dehydrogenases in the viable cells to cleave the tetrazolium rings of MTT and forming dark blue membrane impermeable crystals of formazan that were measured at 570 nm giving an estimate of the number of viable cells.[40] Approximately, 1 × 10^4 cells of HeLa and A549 were plated in a 96-well culture plate in DMEM supplemented with 10% fetal bovine serum and cultured overnight. Different concentrations of the complexes were added to the cells, and incubation was continued for 4 h in dark. After incubation, the medium was replaced with 50 mM phosphate buffer, pH 7.4, containing 150 mM NaCl (PBS) and photo-irradiation was done for 1 h in visible light of 400–700 nm using Luzchem Photoreactor (Model LZC-1, Ontario, Canada; light fluence rate: 2.4 mW cm^−2; light dose = 10 J cm^−2). PBS was replaced with 10% DMEM after irradiation. Incubation was continued for a further period of 19 h in dark for light exposed cells and for 20 h in dark for light unexposed cells followed by addition of 25 μL of 4 mg mL^−1 of MTT to each well and incubated for an additional 3 h. The culture medium was discarded, and a 100 μL volume of DMSO was added to dissolve the formazan crystals. The absorbance at 570 nm was determined using an ELISA microplate reader (BioRad, Hercules, CA, USA). The cytotoxicity of the test compounds was measured as the percentage ratio of the absorbance of the treated cells over the untreated controls. The IC50 values were determined by nonlinear regression analysis (Graphpad Prism, version 7).

[2] = target: T1, human serum albumin (HSA) (Homo sapiens, UniProt P02768); experiment: Protein binding by tryptophan fluorescence quenching; settings: fluorescence lifetime of HSA with 10 and 20 μM complex
T1 construct: purchased Sigma (U.S.A.)
T1 sequence (P02768 25-609): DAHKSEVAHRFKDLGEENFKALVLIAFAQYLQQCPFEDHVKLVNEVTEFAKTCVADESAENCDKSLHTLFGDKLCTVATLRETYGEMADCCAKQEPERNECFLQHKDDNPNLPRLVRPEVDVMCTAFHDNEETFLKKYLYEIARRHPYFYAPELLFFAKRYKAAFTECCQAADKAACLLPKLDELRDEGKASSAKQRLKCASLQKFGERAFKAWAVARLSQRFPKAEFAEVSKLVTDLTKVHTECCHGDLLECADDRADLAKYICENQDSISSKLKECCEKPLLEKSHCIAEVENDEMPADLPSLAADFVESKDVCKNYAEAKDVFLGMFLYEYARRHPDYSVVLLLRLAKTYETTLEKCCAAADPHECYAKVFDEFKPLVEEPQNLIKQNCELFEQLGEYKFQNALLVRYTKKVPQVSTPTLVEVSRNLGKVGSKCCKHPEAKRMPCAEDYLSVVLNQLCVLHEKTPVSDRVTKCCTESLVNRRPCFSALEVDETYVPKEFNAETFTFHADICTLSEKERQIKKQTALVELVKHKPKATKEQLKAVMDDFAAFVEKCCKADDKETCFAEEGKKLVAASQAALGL
Experimental: The protein binding study was carried out by tryptophan fluorescence quenching experiments using human serum albumin (HSA, 2 μM) in Tris–HCl buffer (pH 7.2). Quenching of the emission intensity of tryptophan residue (Trp 214) of HSA at 320 nm (excitation wavelength at 280 nm) was monitored using complexes 1–6 as quenchers with increasing concentration.[38]I0/I vs. [complex] plots were constructed. Linear fit of the data using the equation I0/I = 1 + K[Q], where I0 and I are the emission intensity of HSA in the absence of quencher and emission intensity of HSA in the presence of the quencher of concentration [Q] gave the binding constant KHSA values using OriginPro 8. […] Average fluorescence lifetime of pure HSA (2 μM) was measured and compared with its fluorescence lifetime in presence of two different concentrations (10 and 20 μM) of complex 3 using a time-resolved fluorimeter.[39]

HeLa cells [3] = experiment: Annexin-V/FITC/PI assay by flow cytometry; type: cell-based, human; settings: 5 μM
Experimental: The mechanism of light-assisted cell death induced by the complexes was studied by annexin-V/FITC/PI assay using complexes 1 and 3 in 1% DMSO/DMEM.[44] ∼4 × 10^5 HeLa cells seeded in six-well plates were cultured for 24 h. The cells were then incubated with 3 (5 μM) for 4 h in the dark and then exposed to visible light (λ = 400–700 nm, light dose = 10 J cm^−2) in phenol red free media for 1 h. The corresponding dark control experiment was carried out. Cells were incubated for another 19 h and 20 h respectively for the light exposed and unexposed plates in DMEM/10% fetal bovine serum (FBS) buffer in the dark. The medium was discarded, cells were trypsinized and re-suspended in 140 μL Annexin V binding buffer (100 mM HEPES/NaOH, pH 7.4 containing 140 mM NaCl and 2.5 mM CaCl2). Annexin-V/FITC ([…]) and propidium iodide (PI; […]) were added to the cell suspensions, incubated for 5 min and readings were taken using a flow cytometer.

HeLa cells [4] = experiment: Cellular uptake by flow cytometry; type: cell-based, human; settings: 10 μM, 4 h in dark, fluorescence vs cells' auto fluorescence
Experimental: Uptake of the complexes 1–3 in HeLa cells were studied by flow cytometric method reported in literature.[42] HeLa cells were treated with 1–3 (10 μM) and incubated for 4 h in dark. The cells were harvested by trypsinization and a suspension in PBS was prepared. The uptake of the green fluorescent complexes in HeLa cells were evaluated by flow cytometry.

A549 cells [5] = experiment: MTT cell viability assay (photocytotoxicity), A549; type: cell-based, human; settings: for PI (Phototoxic Index) A549: ratio between IC50 in the dark and visible light exposure
Experimental: as §1

[6] = Partition coefficient n-octanol/water, modified shake-flask method; type: physicochemical; settings: average of three concentrations
Experimental: A modified shake-flask method was used to determine the partition coefficients of the complexes 1–6 between n-octanol and water.[41] Briefly, 5 ml solution of a complex in octanol-saturated water was shaken with 5 ml of water-saturated n-octanol in a falcon tube for ∼30 min using a vortex. The biphasic mixture was centrifuged for ∼5 min at 4000 rpm and the layers were separated. The concentration of the complexes 1–6 in each layer was measured by UV-visible spectroscopy. The partition coefficients of 1–6 were determined at three different concentrations and averaged out.

HeLa cells [7] = experiment: DCFDA assay for detection of ROS; type: cell-based, human; settings: 5 μM
Experimental: The generation of cellular reactive oxygen species (ROS) was assessed using DCFDA assay.[43] Approximately ∼1 × 10^6 HeLa cells were incubated with complex 3 (5 μM) for 4 h which is followed by photo-irradiation (400–700 nm) for 1 h in PBS. The cells were then harvested by trypsinization and a single cell suspension in PBS was made. After that the cells were treated with DCFDA solution (10 μM, in DMSO) in dark at room temperature for 5 min. The distribution of DCFDA stained HeLa cells was determined by flow cytometry in the FL-1 channel.

A549 cells [8] = settings: curcumin, cited from earlier work
HeLa cells [9] = settings: curcumin, cited from earlier work
[10] = 4 h treatment followed by 20 h incubation in dark, read-out: IC50 HeLa Dark
[11] = 4 h treatment in dark, visible light (400–700 nm, 10 J cm^−2) 1 h, then 19 h in dark, read-out: IC50 HeLa Light
[12] = visible light (400–700 nm, 10 J cm^−2)
[13] = 4 h treatment followed by 20 h incubation in dark, read-out: IC50 A549 Dark
[14] = 4 h treatment in dark, visible light (400–700 nm, 10 J cm^−2) 1 h, then 19 h in dark, read-out: IC50 A549 Light

## COc1cc(/C=C/C(=O)C=C([O-])/C=C/c2ccc(O)c(OC)c2)ccc1O.[Cu+2].[O-][Cl+3]([O-])([O-])[O-].c1ccc2nc3c4cccnc4c4ncccc4c3nc2c1 [Complex 3, [Cu(Cur)(dppz)(ClO4)]]
HeLa cells [1]; [10]
  IC50: 58.9 ± 3.7 µM
HeLa cells [1]; [11]
  IC50: 3.7 ± 0.5 µM
HeLa cells [1]
  PI (Phototoxic Index) HeLa: 15.9
[2]
  HSA fluorescence quenching mechanism: static in nature
HeLa cells [3]; in dark
  population of cells in early apoptotic stage: ~4%
  population of cells in late apoptotic stage: ~8%
HeLa cells [3]; [12]
  population of cells in early apoptotic stage: ~50%
  population of cells in late apoptotic stage: ~15%
HeLa cells [4]
  uptake in HeLa cells: highest uptake
A549 cells [5]; [13]
  IC50: 64.9 ± 4.3 µM
A549 cells [5]; [14]
  IC50: 4.3 ± 0.4 µM
A549 cells [5]
  PI (Phototoxic Index) A549: 15.1
[6]
  log Po/w: 0.945
HeLa cells [7]; 4 h, photo-irradiation (400–700 nm) 1 h
  ROS generation (DCF emission): significant increase in emission by DCF
HeLa cells [7]; compound treated cells kept in dark
  ROS generation (DCF emission): did not show any significant ROS formation

## CC(=O)C=C(C)[O-].[Cu+2].[O-][Cl+3]([O-])([O-])[O-].c1cnc2c(c1)c1nccnc1c1cccnc12 [Complex 5, [Cu(acac)(dpq)(ClO4)]]
HeLa cells [1]; [10]
  IC50: > 100 µM
HeLa cells [1]; [11]
  IC50: 46.8 ± 3.9 µM
HeLa cells [1]
  PI (Phototoxic Index) HeLa: >2.1
A549 cells [5]; [13]
  IC50: > 100 µM
A549 cells [5]; [14]
  IC50: 45.1 ± 3.5 µM
A549 cells [5]
  PI (Phototoxic Index) A549: >2.2
[6]
  log Po/w: −0.180

## CC(=O)C=C(C)[O-].[Cu+2].[O-][Cl+3]([O-])([O-])[O-].c1ccc2nc3c4cccnc4c4ncccc4c3nc2c1 [Complex 6]
HeLa cells [1]; [10]
  IC50: > 100 µM
HeLa cells [1]; [11]
  IC50: 36.9 ± 2.8 µM
HeLa cells [1]
  PI (Phototoxic Index) HeLa: >2.7
A549 cells [5]; [13]
  IC50: > 100 µM
A549 cells [5]; [14]
  IC50: 39.8 ± 3.3 µM
A549 cells [5]
  PI (Phototoxic Index) A549: >2.5

## COc1cc(/C=C/C(=O)C=C([O-])/C=C/c2ccc(O)c(OC)c2)ccc1O.[Cu+2].[O-][Cl+3]([O-])([O-])[O-].c1cnc2c(c1)ccc1cccnc12 [Complex 1, [Cu(Cur)(phen)(ClO4)]]
HeLa cells [1]; [10]
  IC50: 56.4 ± 3.5 µM
HeLa cells [1]; [11]
  IC50: 6.8 ± 0.9 µM
HeLa cells [1]
  PI (Phototoxic Index) HeLa: 8.3
HeLa cells [3]; visible light (400–700 nm, 10 J cm^−2) vs dark
  induction of apoptosis (in words): visible light assisted induction of apoptosis in HeLa cells, however not up to the extent of 3
A549 cells [5]; [13]
  IC50: 85.3 ± 5.4 µM
A549 cells [5]; [14]
  IC50: 8.6 ± 0.8 µM
A549 cells [5]
  PI (Phototoxic Index) A549: 9.9
[6]
  log Po/w: −0.525

## COc1cc(C=CC(=O)C=C([O-])C=Cc2ccc(O)c(OC)c2)ccc1O.[Cu+2].[O-][Cl+3]([O-])([O-])[O-].c1cnc2c(c1)c1nccnc1c1cccnc12 [Complex 2, [Cu(Cur)(dpq)(ClO4)]]
HeLa cells [1]; [10]
  IC50: 61.9 ± 3.9 µM
HeLa cells [1]; [11]
  IC50: 4.7 ± 0.8 µM
HeLa cells [1]
  PI (Phototoxic Index) HeLa: 13.2
A549 cells [5]; [13]
  IC50: 65.6 ± 4.4 µM
A549 cells [5]; [14]
  IC50: 5.7 ± 0.7 µM
A549 cells [5]
  PI (Phototoxic Index) A549: 11.5
[6]
  log Po/w: 0.345

## CC(=O)C=C(C)[O-].[Cu+2].[O-][Cl+3]([O-])([O-])[O-].c1cnc2c(c1)ccc1cccnc12 [Complex 4, [Cu(acac)(phen)(ClO4)]]
HeLa cells [1]; [10]
  IC50: > 100 µM
HeLa cells [1]; [11]
  IC50: 41 ± 3.8 µM
A549 cells [5]; [13]
  IC50: > 100 µM
A549 cells [5]; [14]
  IC50: 48.8 ± 4.2 µM

## COc1cc(/C=C/C(=O)CC(=O)/C=C/c2ccc(O)c(OC)c2)ccc1O [Curcumin, (1E,6E)-1,7-bis(4-hydroxy-3-methoxyphenyl)-1,6-heptadiene-3,5-dione]
A549 cells [8]; read-out: IC50 A549 Dark
  IC50: 61.4 ± 0.4 µM
A549 cells [8]; read-out: IC50 A549 Light
  IC50: 19 ± 0.1 µM
HeLa cells [9]; read-out: IC50 HeLa Dark
  IC50: 85.4 ± 0.6 µM
HeLa cells [9]; read-out: IC50 HeLa Light
  IC50: 8.2 ± 0.2 µM
